Where “and” joins values, the source holds several entries; their conditions need not be identical. Equal values may be shown once. Residues, ends and D or L forms follow the SMILES beside them. *: point of attachment. NHPh = c1ccc(N*)cc1
Target: T1, human Nav1.7 (Homo sapiens, UniProt Q15858)
T1 construct: expressed in transfected cells; host or cells: HEK293 stably expressing human Nav1.7
Assay: Whole-cell patch-clamp, HEK293 cells stably expressing human Nav1.7 with GFP or FGF13-GFP
Format: cell-based
Set-up: Nav1.7 repriming time course, Mean / Figure 4I, Mean versus Time (ms): unit not given here
Conditions: for Activation / LTI, 2nd Pulse / LTI, 3rd Pulse / LTI, 4th Pulse / Peak Density / Steady-State inactivation / Tau (τ): HEK293 Nav1.7
Method: Whole-cell patch clamp electrophysiology
HEK293-Nav1.7 cells, HEK293 stably expressing human Nav1.6 (HEK-Nav1.6), HEK293 stably expressing human Nav1.5 (HEK-Nav1.5), human hIPSC-derived sensory neurons (RealDRGTM from Anatomic Incorporated 1020F1-1M) and donor-derived DRG neurons were plated at low density on glass coverslips and processed for whole-cell patch clamp electrophysiology in voltage-clamp and/or current clamp mode. Whole-cell patch electrophysiological experiments were conducted following previously published studies (26). Current densities were obtained by dividing INa amplitude by membrane capacitance. Current –voltage relationships were generated by plotting current density as a function of the […]. Conductance (G Na) was calculated by the […]
where INa is the current amplitude at voltage Vm, and Erev is the Na+ reversal potential.
Activation curves were derived by plotting normalized GNa as a function of test potential and fitted using […]
Where GNa,Max is the maximum conductance, Va is the membrane potential of half-maximal activation, Em is the membrane voltage and k is the slope factor. For steady -state inactivation, normalized current amplitude (INa/INa,Max) at the test potential was plotted as a function of prepulse potential (Vm) and fitted using the […]
Where Vh is the potential of half-maximal inactivation, E m is the membrane voltage, and k is the slope factor.
Transient INa inactivation decay was estimated with the standard exponential equation. Inactivation time constant (tau, τ) was fitted with the following equation: […]
where I(t) is the amplitude of the current at time t and Iss is the steady-state current during a single voltage-step.
The goodness of fitting was determined by correlation coefficient (R), and the cutoff of R was set at 0.85. To observe effects on long-term inactivation (LTI), a four-step protocol was employed during which cells were subjected to four 0 mV, 20 ms depolarization pulses separated by −90 mV, 40 ms recovery intervals. To control for various cell sizes, the current densities were calculated by dividing INa peak current amplitude/membrane capacitance (Cm). To represent the fraction of channels entering into LTI, the peak INa observed during depolarization cycles 2-4 was normalized to the peak INa observed during depolarization cycle 1 (INa/INa,Cycle 1) and plotted as a function of the depolarization cycle.
The cumulative (frequency-dependent) use-dependency was determined by applying 20 pulses with a depolarization to −10 mV (50 ms duration) and 50 ms recovery intervals with a train of 20 pulses at 10 Hz from a holding potential at -70 mV. The current pulses were normalized to the first reco rded pulse and the currents at the 2nd to 20th pulses were compared. The same train was used to record use-dependency at various frequencies […]
The rate of recovery from inactivation was recorded at -80 mV with a standard repriming voltage protocol.
The cells were prepulsed to -20 mV for 20 ms to inactivate all currents, then driven back to the recovery potential (Vrec) for increasing recovery durations before the test pulse to 0 mV. The maximum pulse rate was 0.5 Hz. The […]
follows previous publications (16). The time constants were estimated from single exponential decay to time courses measured at recovery potentials ranging from -140 to -60 mV with the protocol as mentioned above.
Electrophysiological Recordings
HEK293 cells: Electrophysiological recordings in HEK293 stably expressing Nav1.7 (HEK-Nav1.7), Nav1.5 (HEK-Nav1.5) or Nav1.6 (HEK-Nav1.6) were performed at room temperature using a MultiClamp 700B or an Axopatch 200B amplifier (Molecular Devices) after incubating coverslips for 60 minutes either with 0.1% DMSO or 50 μM PW164 or ZL192 in the extracellular solution. The composition of recording solutions consisted of the […]
following salts: extracellular (mM): 140 NaCl, 3 KCl, 1 MgCl2, 1 CaCl2, 10 HEPES, 10 glucose, pH 7.3; […]
intracellular (mM): 130 CH3O3 SCs, 1 EGTA, 10 NaCl, 10 HEPES, pH 7.3. […]

[1] = Nav1.7 + FGF13-GFP, Steps 1, N 10
[2] = Nav1.7 + FGF13-GFP, Steps 3, N 10

T1 sequence (Q92913 1-192 partner limits assumed): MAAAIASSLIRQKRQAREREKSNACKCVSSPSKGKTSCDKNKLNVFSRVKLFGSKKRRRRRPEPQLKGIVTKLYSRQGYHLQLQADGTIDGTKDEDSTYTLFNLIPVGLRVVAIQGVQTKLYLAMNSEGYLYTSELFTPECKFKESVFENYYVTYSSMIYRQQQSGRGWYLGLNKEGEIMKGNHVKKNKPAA
T1 sequence (Q15858 1-1977 isoform Q15858-3): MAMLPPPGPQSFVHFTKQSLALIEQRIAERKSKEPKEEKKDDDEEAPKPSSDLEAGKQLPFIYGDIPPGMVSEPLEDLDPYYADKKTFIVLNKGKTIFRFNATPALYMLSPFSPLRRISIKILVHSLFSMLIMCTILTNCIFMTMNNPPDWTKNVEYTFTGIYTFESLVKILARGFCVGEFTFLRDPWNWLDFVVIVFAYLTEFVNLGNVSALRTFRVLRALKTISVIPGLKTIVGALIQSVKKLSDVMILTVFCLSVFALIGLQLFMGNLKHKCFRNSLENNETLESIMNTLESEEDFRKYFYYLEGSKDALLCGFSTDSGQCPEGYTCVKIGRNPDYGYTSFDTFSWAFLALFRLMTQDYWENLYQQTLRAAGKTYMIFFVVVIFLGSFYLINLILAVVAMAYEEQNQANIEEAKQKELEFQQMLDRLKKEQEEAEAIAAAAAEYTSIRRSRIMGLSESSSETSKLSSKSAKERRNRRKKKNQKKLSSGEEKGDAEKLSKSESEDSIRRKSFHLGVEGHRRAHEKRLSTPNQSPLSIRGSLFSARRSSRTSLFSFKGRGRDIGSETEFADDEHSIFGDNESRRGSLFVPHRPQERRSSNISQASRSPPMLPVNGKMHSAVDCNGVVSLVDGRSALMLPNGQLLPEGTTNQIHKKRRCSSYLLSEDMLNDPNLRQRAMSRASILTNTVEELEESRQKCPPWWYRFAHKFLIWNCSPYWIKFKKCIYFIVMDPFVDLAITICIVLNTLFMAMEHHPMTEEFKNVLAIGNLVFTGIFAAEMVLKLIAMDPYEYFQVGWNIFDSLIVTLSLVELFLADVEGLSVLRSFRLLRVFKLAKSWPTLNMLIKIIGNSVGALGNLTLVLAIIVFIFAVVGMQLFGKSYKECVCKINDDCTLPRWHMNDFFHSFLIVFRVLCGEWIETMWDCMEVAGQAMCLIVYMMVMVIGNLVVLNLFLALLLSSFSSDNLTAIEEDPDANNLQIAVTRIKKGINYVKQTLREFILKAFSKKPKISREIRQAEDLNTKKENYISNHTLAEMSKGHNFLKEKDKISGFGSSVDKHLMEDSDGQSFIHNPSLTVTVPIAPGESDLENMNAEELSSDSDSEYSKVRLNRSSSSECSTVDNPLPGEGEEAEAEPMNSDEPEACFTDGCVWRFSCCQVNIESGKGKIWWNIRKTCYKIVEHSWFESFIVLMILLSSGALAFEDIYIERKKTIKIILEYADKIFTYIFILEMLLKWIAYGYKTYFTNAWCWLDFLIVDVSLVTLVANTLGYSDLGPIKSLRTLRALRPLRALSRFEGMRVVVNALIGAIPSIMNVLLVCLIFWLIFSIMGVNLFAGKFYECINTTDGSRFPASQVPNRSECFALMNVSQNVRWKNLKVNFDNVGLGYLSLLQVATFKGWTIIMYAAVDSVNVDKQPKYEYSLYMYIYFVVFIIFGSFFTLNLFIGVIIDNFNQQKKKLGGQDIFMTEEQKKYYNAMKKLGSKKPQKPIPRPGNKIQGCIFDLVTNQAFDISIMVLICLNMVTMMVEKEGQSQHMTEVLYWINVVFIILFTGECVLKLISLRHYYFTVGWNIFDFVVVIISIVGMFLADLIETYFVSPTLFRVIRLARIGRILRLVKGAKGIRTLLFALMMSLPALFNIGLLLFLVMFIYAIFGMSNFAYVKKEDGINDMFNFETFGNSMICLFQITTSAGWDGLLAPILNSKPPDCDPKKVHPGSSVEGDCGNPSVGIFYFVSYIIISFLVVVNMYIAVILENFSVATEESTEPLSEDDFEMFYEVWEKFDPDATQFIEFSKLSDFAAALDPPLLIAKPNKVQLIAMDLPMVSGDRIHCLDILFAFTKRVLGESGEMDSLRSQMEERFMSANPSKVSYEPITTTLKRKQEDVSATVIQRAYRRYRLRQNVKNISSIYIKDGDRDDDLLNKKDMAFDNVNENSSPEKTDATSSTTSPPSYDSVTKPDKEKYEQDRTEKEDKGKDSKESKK

CC(=O)N[C@@H](Cc1ccccc1)C(=O)N[C@@H](CC(C)C)C(=O)N1CCC[C@H]1C(=O)N[C@@H](CCCCN)C(=O)Nc1ccccc1 [ZL192] (Ac-FLPK-NHPh)
Activation (FGF13-GFP + ZL192 50 μM): −26.0 ± 0.8 mV
LTI, 2nd Pulse (FGF13-GFP + ZL192 50 μM): −69.72 ± 5.21 % maximal Na+ current
LTI, 3rd Pulse (FGF13-GFP + ZL192 50 μM): −60.33 ± 5.60 % maximal Na+ current
LTI, 4th Pulse (FGF13-GFP + ZL192 50 μM): −59.34 ± 4.68 % maximal Na+ current
Peak Density (FGF13-GFP + ZL192 50 μM): −139.7 ± 12.3 pA/pF
Steady-State inactivation (FGF13-GFP + ZL192 50 μM): −66.7 ± 2.6 mV
Tau (τ) (FGF13-GFP + ZL192 50 μM): 1.2 ± 0.06 ms
Activation (GFP + ZL192 50 μM): −25.7 ± 0.8 mV
LTI, 2nd Pulse (GFP + ZL192 50 μM): −67.94 ± 3.77 % maximal Na+ current
LTI, 3rd Pulse (GFP + ZL192 50 μM): −62.35 ± 57.35 % maximal Na+ current
LTI, 4th Pulse (GFP + ZL192 50 μM): −60.93 ± 3.90 % maximal Na+ current
Peak Density (GFP + ZL192 50 μM): −73.5 ± 8.1 pA/pF
Steady-State inactivation (GFP + ZL192 50 μM): −82.8 ± 1.1 mV
Tau (τ) (GFP + ZL192 50 μM): 1.3 ± 0.1 ms
EC50 (HEK-Nav1.7 coexpressing FGF13, Fig 4D, read-out: EC50, potentiation of INa): 8.5 ± 0.9 µM
Current density pA/pF (Figure 4D), individual cells (Nav1.7 + FGF13-GFP): -168.188 pA/pF and -158.115 pA/pF and -119.568 pA/pF and -127.538 pA/pF and -145.958 pA/pF and -170.525 pA/pF and -75.8621 pA/pF and -128.86 pA/pF and -208.183 pA/pF and -94.6899 pA/pF
pA/pF Dose response (Figure 4D), individual cells (Nav1.7 + FGF13-GFP, Log (conc(M) -4)): -162.222 pA/pF and -131.216 pA/pF and -115.311 pA/pF and -179.051 pA/pF and -125.271 pA/pF and -135.274 pA/pF
pA/pF Dose response (Figure 4D), individual cells (Nav1.7 + FGF13-GFP, Log (conc(M) -4.12)): -133.535 pA/pF and -142.569 pA/pF and -148.889 pA/pF
pA/pF Dose response (Figure 4D), individual cells (Nav1.7 + FGF13-GFP, Log (conc(M) -4.22)): -94.6899 pA/pF and -168.188 pA/pF and -158.115 pA/pF and -119.568 pA/pF and -127.538 pA/pF and -145.958 pA/pF and -170.525 pA/pF and -75.8621 pA/pF and -128.86 pA/pF and -208.183 pA/pF
pA/pF Dose response (Figure 4D), individual cells (Nav1.7 + FGF13-GFP, Log (conc(M) -4.6)): -142.47 pA/pF and -131.114 pA/pF and -147.185 pA/pF and -132.461 pA/pF and -139.907 pA/pF and -150.76 pA/pF and -140.066 pA/pF
pA/pF Dose response (Figure 4D), individual cells (Nav1.7 + FGF13-GFP, Log (conc(M) -4.82)): -154.895 pA/pF and -103.016 pA/pF and -135.94 pA/pF and -128.008 pA/pF and -135.582 pA/pF and -110.637 pA/pF and -137.656 pA/pF (2×)
pA/pF Dose response (Figure 4D), individual cells (Nav1.7 + FGF13-GFP, Log (conc(M) -5)): -99.4552 pA/pF and -132.222 pA/pF and -121.216 pA/pF and -111.311 pA/pF and -169.051 pA/pF and -139.271 pA/pF and -105.274 pA/pF
pA/pF Dose response (Figure 4D), individual cells (Nav1.7 + FGF13-GFP, Log (conc(M) -5.5)): -112.13 pA/pF and -130.035 pA/pF and -105.009 pA/pF and -123.737 pA/pF and -114.192 pA/pF and -90.2752 pA/pF and -117.316 pA/pF
pA/pF Dose response (Figure 4D), individual cells (Nav1.7 + FGF13-GFP, Log (conc(M) -6)): -149.506 pA/pF and -142.879 pA/pF and -66.945 pA/pF and -161.516 pA/pF and -59.6444 pA/pF and -67.5751 pA/pF and -70.501 pA/pF and -91.4611 pA/pF and -141.024 pA/pF and -68.796 pA/pF and -57.939 pA/pF
Figure 4G, Mean per step (normalized) [1]: 1
Figure 4H, Mean per step (step 1 = 100) [1]: 100
Figure 4H, Mean per step (step 1 = 100) (Nav1.7 + FGF13-GFP, Steps 2, N 10): 69.7172
Figure 4G, Mean per step (normalized) [2]: 0.9185
Figure 4H, Mean per step (step 1 = 100) [2]: 60.3376
Figure 4H, Mean per step (step 1 = 100) (Nav1.7 + FGF13-GFP, Steps 4, N 10): 59.3427
Figure 4G, Mean per step (normalized) (Nav1.7 + FGF13-GFP, Steps 5, N 10): 0.9162
Figure 4G, Mean per step (normalized) (Nav1.7 + FGF13-GFP, Steps 10, N 10): 0.8818
Figure 4G, Mean per step (normalized) (Nav1.7 + FGF13-GFP, Steps 15, N 10): 0.8857
Figure 4G, Mean per step (normalized) (Nav1.7 + FGF13-GFP, Steps 20, N 10): 0.8672
Figure 4I, Mean versus Time (ms) (Nav1.7 + FGF13-GFP, Time (ms) 2, N 7): -2.382
Figure 4I, Mean versus Time (ms) (Nav1.7 + FGF13-GFP, Time (ms) 5, N 7): -10.2316
Figure 4I, Mean versus Time (ms) (Nav1.7 + FGF13-GFP, Time (ms) 9, N 7): -21.032
Figure 4I, Mean versus Time (ms) (Nav1.7 + FGF13-GFP, Time (ms) 17, N 7): -28.22
Figure 4I, Mean versus Time (ms) (Nav1.7 + FGF13-GFP, Time (ms) 33, N 7): -35.2152
Figure 4I, Mean versus Time (ms) (Nav1.7 + FGF13-GFP, Time (ms) 65, N 7): -41.6453
Figure 4I, Mean versus Time (ms) (Nav1.7 + FGF13-GFP, Time (ms) 129, N 7): -47.08
Figure 4I, Mean versus Time (ms) (Nav1.7 + FGF13-GFP, Time (ms) 257, N 7): -58.7924
Figure 4I, Mean versus Time (ms) (Nav1.7 + FGF13-GFP, Time (ms) 513, N 7): -60.0808
Figure 4I, Mean versus Time (ms) (Nav1.7 + FGF13-GFP, Time (ms) 1025, N 7): -61.473
Figure 4I, Mean versus Time (ms) (Nav1.7 + FGF13-GFP, Time (ms) 2000, N 7): -62.66
Current density pA/pF (Figure 4D), individual cells (Nav1.7 + GFP): -42.7131 pA/pF and -116.886 pA/pF and -86.2507 pA/pF and -55.3628 pA/pF and -87.5203 pA/pF and -98.7467 pA/pF and -44.4757 pA/pF and -64.4298 pA/pF and -57.1752 pA/pF and -107.666 pA/pF and -47.813 pA/pF
Figure 4H, Mean per step (step 1 = 100) (Nav1.7 + GFP, Steps 1, N 9): 100
Figure 4G, Mean per step (normalized) (Nav1.7 + GFP, Steps 1, N 10): 1
Figure 4H, Mean per step (step 1 = 100) (Nav1.7 + GFP, Steps 2, N 9): 67.9415
Figure 4H, Mean per step (step 1 = 100) (Nav1.7 + GFP, Steps 3, N 9): 62.3546
Figure 4G, Mean per step (normalized) (Nav1.7 + GFP, Steps 3, N 10): 0.8342
Figure 4H, Mean per step (step 1 = 100) (Nav1.7 + GFP, Steps 4, N 9): 60.931
Figure 4G, Mean per step (normalized) (Nav1.7 + GFP, Steps 5, N 10): 0.7578
Figure 4G, Mean per step (normalized) (Nav1.7 + GFP, Steps 10, N 10): 0.7548
Figure 4G, Mean per step (normalized) (Nav1.7 + GFP, Steps 15, N 10): 0.7445
Figure 4G, Mean per step (normalized) (Nav1.7 + GFP, Steps 20, N 10): 0.751
Figure 4I, Mean versus Time (ms) (Nav1.7 + GFP, Time (ms) 2, N 6): -1.684
Figure 4I, Mean versus Time (ms) (Nav1.7 + GFP, Time (ms) 5, N 6): -3.032
Figure 4I, Mean versus Time (ms) (Nav1.7 + GFP, Time (ms) 9, N 6): -5.9665
Figure 4I, Mean versus Time (ms) (Nav1.7 + GFP, Time (ms) 17, N 6): -10.1843
Figure 4I, Mean versus Time (ms) (Nav1.7 + GFP, Time (ms) 33, N 6): -13.6758
Figure 4I, Mean versus Time (ms) (Nav1.7 + GFP, Time (ms) 65, N 6): -16.716
Figure 4I, Mean versus Time (ms) (Nav1.7 + GFP, Time (ms) 129, N 6): -20.6484
Figure 4I, Mean versus Time (ms) (Nav1.7 + GFP, Time (ms) 257, N 6): -23.8114
Figure 4I, Mean versus Time (ms) (Nav1.7 + GFP, Time (ms) 513, N 6): -25.3409
Figure 4I, Mean versus Time (ms) (Nav1.7 + GFP, Time (ms) 1025, N 6): -26.7193
Figure 4I, Mean versus Time (ms) (Nav1.7 + GFP, Time (ms) 2000, N 6): -29.0414
